Patent US10792384B2, “Rolled fibrous structures comprising encapsulated malodor reduction compositions” (The Procter & Gamble Company, priority 2017, dated 2020)

Assay: Blocker Index (BI), expert graders smelling isovaleric acid swatches treated with test material
Conditions: test material 50 ppm on swatch with 20 μL 0.08% isovaleric acid, scale 0-3
Description: Blocker materials suitable for use in consumer products of the present invention are chosen for their ability to decrease malodor, while not interfering with perception of a fragrance. Material selection is done by assigning two indices to a test sample material from two reference scales in order to rank odor strengths. The two reference scales are the Fragrance Fidelity Index (FFI) scale and the Blocker Index (BI) scale. The FFI ranks the ability of the test sample material to impart a perceivable odor which could cause interference when combined with another fragrance and the BI ranks the ability of the test sample material to reduce malodor perception. The two methods for assigning the indices to a test sample on the FFI and the BI reference scales are given below.
The first step in the method for assigning a BI to a test sample material on the BI reference scale is to create the BI reference swatches. […] Fabric swatches for this test are white knit polycotton (4 inch×4 inch) swatches from EMC ordered as PC 50/50. The supplier is instructed to strip the swatches first, stripping involves washing twice with a fragrance-free detergent and rinsing three times.
The BI scale contains one clean swatch with no malodor applied. […] These solutions are pipetted to the middle of the swatches. […]

## C=C/C(C)=C\CC=C(C)C [Material 524]
  BI: 2.8
